Data reported in patent US20190381024A1, “NICOTINAMIDE FOR LOWERING PHOSPHATE LEVELS IN HYPERPHOSPHATEMIA” (MEDICE Arzneimittel Putter GmbH & Co. KG, priority 2015, published 2019).
Like-named read-outs stand apart in the source and are kept apart here. Each block holds one compound with its values, some of them ahead of it.

Key:
NaPi-IIa = biological target: T1, NaPi-IIa (Homo sapiens, UniProt Q06495); details: proximal renal tubule BBM (S1-S3); cited from earlier work
T1 sequence (Q06495 1-639): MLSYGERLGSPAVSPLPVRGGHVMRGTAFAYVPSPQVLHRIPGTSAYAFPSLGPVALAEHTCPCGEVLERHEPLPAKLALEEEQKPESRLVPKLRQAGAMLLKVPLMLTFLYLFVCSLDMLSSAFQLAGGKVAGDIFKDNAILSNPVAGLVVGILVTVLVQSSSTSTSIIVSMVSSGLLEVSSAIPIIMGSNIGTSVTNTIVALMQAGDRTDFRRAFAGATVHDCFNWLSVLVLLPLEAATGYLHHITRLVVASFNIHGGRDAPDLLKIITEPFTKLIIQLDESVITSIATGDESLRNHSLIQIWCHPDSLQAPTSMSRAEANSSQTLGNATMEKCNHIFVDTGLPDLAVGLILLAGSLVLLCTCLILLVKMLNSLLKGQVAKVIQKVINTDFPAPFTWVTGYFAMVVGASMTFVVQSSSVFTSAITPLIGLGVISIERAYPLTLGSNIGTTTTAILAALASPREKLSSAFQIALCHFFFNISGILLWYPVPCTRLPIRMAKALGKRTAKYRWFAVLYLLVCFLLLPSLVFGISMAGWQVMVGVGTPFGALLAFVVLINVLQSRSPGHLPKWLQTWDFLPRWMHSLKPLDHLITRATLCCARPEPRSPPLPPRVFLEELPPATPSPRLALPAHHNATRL

NaPi-IIc = biological target: T2, NaPi-IIc (Homo sapiens, UniProt Q8N130); details: proximal renal tubule BBM (S1); cited from earlier work
T2 sequence (Q8N130 1-599): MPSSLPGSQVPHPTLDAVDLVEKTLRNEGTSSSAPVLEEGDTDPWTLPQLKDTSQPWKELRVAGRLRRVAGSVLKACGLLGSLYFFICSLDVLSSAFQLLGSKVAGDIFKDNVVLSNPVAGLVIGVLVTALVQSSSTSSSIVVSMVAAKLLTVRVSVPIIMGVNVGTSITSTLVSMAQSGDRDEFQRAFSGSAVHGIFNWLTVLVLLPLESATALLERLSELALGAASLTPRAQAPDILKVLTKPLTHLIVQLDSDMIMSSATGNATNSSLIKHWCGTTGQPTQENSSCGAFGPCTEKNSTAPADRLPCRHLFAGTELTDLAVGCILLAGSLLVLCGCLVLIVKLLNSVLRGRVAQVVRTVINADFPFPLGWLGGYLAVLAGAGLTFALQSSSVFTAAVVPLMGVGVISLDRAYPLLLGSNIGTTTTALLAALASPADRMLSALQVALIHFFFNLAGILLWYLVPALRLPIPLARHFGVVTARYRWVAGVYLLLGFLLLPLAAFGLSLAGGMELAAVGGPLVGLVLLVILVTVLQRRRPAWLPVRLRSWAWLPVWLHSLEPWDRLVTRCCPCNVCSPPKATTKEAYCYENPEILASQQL

NaPi-IIb [1] = biological target: T3, NaPi-IIb (Homo sapiens, UniProt O95436); details: duodenal and jejunal BBM; cited from earlier work
T3 sequence (O95436 1-690): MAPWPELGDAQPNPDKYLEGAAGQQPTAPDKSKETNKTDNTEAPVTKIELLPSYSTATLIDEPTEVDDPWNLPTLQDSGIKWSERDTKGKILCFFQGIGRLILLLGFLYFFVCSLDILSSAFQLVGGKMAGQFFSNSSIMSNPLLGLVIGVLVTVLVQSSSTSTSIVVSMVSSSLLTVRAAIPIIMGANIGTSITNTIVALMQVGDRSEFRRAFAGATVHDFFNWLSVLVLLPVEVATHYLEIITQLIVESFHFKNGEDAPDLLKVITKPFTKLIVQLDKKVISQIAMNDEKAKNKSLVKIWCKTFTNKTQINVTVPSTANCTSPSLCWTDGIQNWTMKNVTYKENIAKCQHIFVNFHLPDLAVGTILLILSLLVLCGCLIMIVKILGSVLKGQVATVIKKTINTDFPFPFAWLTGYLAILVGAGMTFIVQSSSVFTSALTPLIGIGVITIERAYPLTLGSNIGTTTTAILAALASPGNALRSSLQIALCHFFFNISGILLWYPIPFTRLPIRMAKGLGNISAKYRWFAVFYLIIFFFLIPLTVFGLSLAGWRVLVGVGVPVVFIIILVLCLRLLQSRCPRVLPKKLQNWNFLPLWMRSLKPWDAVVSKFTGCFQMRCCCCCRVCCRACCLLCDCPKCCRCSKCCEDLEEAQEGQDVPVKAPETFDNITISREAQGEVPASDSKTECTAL

NaPi-IIb [2] = details: intraperitoneal administration; cited from earlier work
NaPi-IIb receptor = assay: Expression of NaPi-IIb receptor in the small intestine over 5 weeks (FIG. 1); assay type: in vivo; details: nicotinamide 10 mg/kg body weight, conventional binder calcium carbonate 10 mg/kg, sevelamer 20 mg/kg body weight
[3] = human, CKD patients; cited from earlier work
[4] = intraperitoneal administration; cited from earlier work
[5] = Clinical study of serum phosphate levels in CKD patients on hemodialysis (FIG. 2-5); assay type: in vivo, human
From the text: A study has been undertaken wherein administration of a conventional phosphate binder as well as administration of nicotinamide has been compared with the administration of a combination of a phosphate binder and nicotinamide. For concrete numbers of the amount of patients tested as well as with regard to the phosphate binder and the dosing of phosphate binder and nicotinamide, further details can be taken from the following description, also with regard to the Figures.
These findings are derived from several clinical findings in which chronic renal insufficient patients underwent various medication regimes after an initial wash out phase over 4 weeks to eliminate and to control for pre-medication effects.

[6] = animals; cited from earlier work

SMILES: O=C(O)P(=O)(O)O [PFA, Phosphonoformic acid]
Pharmacological regulators (direction of regulation) of NaPi-IIa (NaPi-IIa): PFA (↓) | Pharmacological regulators (direction of regulation) of NaPi-IIc (NaPi-IIc): PFA (↓) | Pharmacological regulators (direction of regulation) of NaPi-IIb (NaPi-IIb [1]): PFA (↓)

expression of NaPi-IIb in the small intestine (NaPi-IIb receptor): downregulates
SMILES: NC(=O)c1cccnc1 [nicotinamide]
expression of NaPi-IIb (NaPi-IIb [2]): blocks | lowering elevated phosphate levels [3]: effective | gastrointestinal absorption of phosphate [4]: inhibits | reduction of serum phosphate ([5]; combination of nicotinamide and known phosphate lowering agents versus dose-equivalent nicotinamide alone or binders alone): more profound and superior reduction | patients achieving target levels <1.78 mmol/l ([5]; nicotinamide 250 to 1000 mg once daily as add on to previous conventional phosphate binder therapy, 9 weeks, n=126 ITT): 69% | patients with phosphate levels <1.78 mmol/l ([5]; nicotinamide alone, 250 to 1000 mg oral once daily, 9 weeks, n=126 ITT): 45% | Pharmacological regulators (direction of regulation) of NaPi-IIb (NaPi-IIb [1]): Nicotinamide (↓) | lowering elevated phosphate levels [6]: effective
